Results as given in patent US11174268B2, “Benzenesulfonamide compouds and their use as therapeutic agents” (Xenon Pharmaceuticals Inc., priority 2016, dated 2021).
Where a name gives a salt, the structure may show the parent alone. Read-outs that look alike come from different tables or passages of the source.

Key:
[1] = target: T1, NaV1.6 (Homo sapiens (Human), UniProt Q9UQD0); assay: Sodium Influx Assay (Flux), NaV1.6; type: cell-based; conditions: Trex HEK293 cells, ANG2 dye, inactivated state;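 also: Tetracycline-induced cells, compounds applied for one hour at room temperature with modulators holding channels open, IC50 from percent inhibition of sodium influx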
T1 sequence (Q9UQD0 whole entry): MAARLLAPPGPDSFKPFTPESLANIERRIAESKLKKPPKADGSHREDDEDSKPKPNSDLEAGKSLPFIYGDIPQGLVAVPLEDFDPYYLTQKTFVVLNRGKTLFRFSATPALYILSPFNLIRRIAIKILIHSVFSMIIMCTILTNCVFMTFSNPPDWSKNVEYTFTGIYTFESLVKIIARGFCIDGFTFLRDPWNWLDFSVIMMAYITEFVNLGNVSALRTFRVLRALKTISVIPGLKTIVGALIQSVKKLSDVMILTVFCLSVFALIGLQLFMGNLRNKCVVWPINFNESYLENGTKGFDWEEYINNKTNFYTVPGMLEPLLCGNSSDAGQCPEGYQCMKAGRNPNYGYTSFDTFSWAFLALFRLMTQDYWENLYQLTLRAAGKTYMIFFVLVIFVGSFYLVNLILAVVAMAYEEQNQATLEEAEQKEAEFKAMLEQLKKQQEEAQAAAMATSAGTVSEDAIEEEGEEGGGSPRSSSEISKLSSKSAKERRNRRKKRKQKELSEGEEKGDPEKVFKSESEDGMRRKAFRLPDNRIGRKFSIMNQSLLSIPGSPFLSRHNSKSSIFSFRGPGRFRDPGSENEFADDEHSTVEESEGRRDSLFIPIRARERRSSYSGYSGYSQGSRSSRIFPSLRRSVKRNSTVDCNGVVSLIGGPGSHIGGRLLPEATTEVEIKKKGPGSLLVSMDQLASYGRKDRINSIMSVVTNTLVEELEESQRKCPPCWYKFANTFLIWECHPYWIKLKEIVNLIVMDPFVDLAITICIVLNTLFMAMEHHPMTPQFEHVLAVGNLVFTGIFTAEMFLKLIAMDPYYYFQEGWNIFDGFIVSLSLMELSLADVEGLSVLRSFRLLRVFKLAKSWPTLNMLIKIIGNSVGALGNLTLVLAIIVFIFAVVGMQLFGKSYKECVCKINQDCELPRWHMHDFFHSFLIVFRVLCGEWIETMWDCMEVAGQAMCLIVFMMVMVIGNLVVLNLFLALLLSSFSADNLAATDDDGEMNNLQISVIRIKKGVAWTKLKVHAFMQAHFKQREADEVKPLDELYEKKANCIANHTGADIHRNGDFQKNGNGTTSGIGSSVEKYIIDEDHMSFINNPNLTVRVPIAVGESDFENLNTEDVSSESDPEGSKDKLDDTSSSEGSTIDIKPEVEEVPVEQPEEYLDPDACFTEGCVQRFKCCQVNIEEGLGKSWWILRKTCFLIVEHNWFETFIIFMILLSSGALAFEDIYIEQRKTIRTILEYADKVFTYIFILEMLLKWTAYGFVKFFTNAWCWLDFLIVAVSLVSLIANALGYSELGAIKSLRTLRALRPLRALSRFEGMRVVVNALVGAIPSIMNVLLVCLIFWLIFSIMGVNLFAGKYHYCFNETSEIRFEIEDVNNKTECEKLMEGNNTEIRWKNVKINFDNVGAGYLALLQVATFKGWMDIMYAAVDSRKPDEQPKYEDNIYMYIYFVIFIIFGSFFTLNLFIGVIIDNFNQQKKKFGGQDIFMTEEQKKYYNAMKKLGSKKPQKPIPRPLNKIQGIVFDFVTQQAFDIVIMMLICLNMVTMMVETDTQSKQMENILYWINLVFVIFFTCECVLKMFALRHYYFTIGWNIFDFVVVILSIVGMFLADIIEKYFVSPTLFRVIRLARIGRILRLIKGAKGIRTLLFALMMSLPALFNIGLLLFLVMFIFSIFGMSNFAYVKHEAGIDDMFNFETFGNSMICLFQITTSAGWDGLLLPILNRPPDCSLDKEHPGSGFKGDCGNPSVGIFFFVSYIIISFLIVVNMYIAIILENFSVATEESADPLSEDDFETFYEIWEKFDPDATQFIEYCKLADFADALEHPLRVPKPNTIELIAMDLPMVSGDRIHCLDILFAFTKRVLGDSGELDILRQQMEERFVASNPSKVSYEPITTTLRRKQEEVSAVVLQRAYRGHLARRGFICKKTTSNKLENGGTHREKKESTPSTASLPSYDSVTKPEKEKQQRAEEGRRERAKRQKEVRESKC

[2] = target: T2, NaV1.1 (Homo sapiens (Human), UniProt P35498); assay: Sodium Influx Assay (Flux), NaV1.1; type: cell-based; conditions: Trex HEK293 cells, ANG2 dye, inactivated state;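 also: channels co-expressed with human β1 subunit and held open by modulators, cells exposed to compounds for one hour at room temperature, IC50 from percent inhibition of influx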
[3] = target: T3, NaV1.5 (Homo sapiens (Human), UniProt Q14524)
T3 sequence (Q14524 other isoform, or with tags, fused parts or gaps): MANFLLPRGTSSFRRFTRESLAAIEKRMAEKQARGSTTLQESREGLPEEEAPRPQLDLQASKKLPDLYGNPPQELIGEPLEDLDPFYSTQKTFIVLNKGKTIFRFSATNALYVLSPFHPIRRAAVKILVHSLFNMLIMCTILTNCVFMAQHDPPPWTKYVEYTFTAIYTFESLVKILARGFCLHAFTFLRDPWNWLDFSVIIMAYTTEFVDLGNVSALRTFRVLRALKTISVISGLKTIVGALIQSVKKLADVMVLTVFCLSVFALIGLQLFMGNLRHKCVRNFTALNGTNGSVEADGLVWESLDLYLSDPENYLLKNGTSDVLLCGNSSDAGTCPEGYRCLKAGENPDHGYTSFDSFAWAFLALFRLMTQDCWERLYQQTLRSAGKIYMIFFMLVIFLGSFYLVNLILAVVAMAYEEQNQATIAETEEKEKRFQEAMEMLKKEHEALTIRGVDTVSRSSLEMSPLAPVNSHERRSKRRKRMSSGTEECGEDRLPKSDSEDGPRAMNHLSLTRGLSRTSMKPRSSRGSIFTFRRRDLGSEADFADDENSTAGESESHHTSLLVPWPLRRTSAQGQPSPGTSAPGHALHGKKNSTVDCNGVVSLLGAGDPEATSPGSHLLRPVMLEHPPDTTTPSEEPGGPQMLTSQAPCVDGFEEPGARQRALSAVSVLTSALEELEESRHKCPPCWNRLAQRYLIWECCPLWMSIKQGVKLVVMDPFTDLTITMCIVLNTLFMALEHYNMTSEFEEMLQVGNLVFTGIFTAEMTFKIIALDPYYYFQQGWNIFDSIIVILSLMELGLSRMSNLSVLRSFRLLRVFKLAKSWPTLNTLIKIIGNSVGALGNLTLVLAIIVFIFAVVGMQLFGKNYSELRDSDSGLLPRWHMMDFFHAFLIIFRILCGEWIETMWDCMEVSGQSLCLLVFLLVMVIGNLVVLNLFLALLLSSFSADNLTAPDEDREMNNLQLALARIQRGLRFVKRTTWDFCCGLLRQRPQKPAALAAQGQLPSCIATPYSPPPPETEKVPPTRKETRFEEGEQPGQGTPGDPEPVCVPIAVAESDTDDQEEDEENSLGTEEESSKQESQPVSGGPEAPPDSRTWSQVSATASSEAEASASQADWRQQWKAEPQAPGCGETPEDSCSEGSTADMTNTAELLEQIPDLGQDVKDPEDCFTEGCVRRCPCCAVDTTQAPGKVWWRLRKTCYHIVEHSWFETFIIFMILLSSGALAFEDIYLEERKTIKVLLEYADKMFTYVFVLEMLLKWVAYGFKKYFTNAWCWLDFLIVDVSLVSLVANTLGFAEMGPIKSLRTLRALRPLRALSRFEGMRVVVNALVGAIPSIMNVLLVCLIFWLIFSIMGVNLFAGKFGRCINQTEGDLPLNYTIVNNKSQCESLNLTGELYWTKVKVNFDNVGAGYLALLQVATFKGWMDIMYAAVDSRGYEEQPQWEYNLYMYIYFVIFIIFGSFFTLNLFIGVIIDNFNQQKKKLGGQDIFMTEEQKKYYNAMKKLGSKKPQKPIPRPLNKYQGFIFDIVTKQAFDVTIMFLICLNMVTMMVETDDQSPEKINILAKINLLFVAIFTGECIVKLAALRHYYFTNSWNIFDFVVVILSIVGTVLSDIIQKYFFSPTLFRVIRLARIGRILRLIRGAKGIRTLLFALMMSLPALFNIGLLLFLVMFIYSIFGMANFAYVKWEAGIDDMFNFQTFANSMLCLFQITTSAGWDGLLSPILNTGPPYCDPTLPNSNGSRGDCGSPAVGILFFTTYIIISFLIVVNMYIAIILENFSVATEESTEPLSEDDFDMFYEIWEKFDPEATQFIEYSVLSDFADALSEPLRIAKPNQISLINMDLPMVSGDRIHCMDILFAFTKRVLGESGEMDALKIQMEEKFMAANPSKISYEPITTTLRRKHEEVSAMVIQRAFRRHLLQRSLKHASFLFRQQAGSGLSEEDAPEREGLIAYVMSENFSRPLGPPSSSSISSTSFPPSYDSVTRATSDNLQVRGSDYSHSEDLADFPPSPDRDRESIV

[4] = target: T3, NaV1.5; assay: Electrophysiological Assay (EP), patch voltage clamp, NaV1.5; type: cell-based; conditions: HEK-293 cells, whole-cell patch clamp
[5] = target: T3, NaV1.5; assay: Sodium Influx Assay (Flux), NaV1.5; conditions: read-out: Flux NaV1.5 IC50; Trex HEK293 cells, ANG2 dye, inactivated state
[6] = target: T1, NaV1.6; assay: Electrophysiological Assay (EP), patch voltage clamp, NaV1.6; type: cell-based; conditions: HEK-293 cells, whole-cell patch clamp;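 also: sodium current recorded at ambient temperature, channels held inactivated then briefly repolarized to −150 mV for 20 ms before a test pulse, control currents in 0.5% DMSO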
[7] = target: T2, NaV1.1; assay: Electrophysiological Assay (EP), patch voltage clamp, NaV1.1; type: cell-based; conditions: HEK-293 cells, whole-cell patch clamp;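 also: sodium current block measured at ambient temperature, holding at fully inactivating potential, 20 ms repolarization to −150 mV before test pulse, versus 0.5% DMSO control currents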

| IC50 [6] [µM] | IC50 [7] [µM] | Compound | IC50 [1] [µM] | IC50 [2] [µM] | IC50 [3] [µM] | IC50 [4] [µM] | IC50 [5] [µM] |
| --- | --- | --- | --- | --- | --- | --- | --- |
|  |  | CN(Cc1cccc(F)c1CNc1cc(F)c(S(=O)(=O)Nc2cscn2)c(F)c1)CC1CC1 [Example 187, 4-((2-(((cyclopropylmethyl)(methyl)amino)methyl)-6-fluorobenzyl)amino)-2,6-difluoro-N-(thiazol-4-yl)benzenesulfonamide formate] | 0.065 | 12.4 | 30 |  |  |
|  |  | CC1(C)CCN1Cc1c(F)cccc1CNc1cc(F)c(S(=O)(=O)Nc2cscn2)c(F)c1 [Example 198, 4-((2-((2,2-dimethylazetidin-1-yl)methyl)-3-fluorobenzyl)amino)-2,6-difluoro-N-(thiazol-4-yl)benzenesulfonamide formate] | 0.391 | 25.8 | 30 |  |  |
|  |  | C[C@H](Nc1cc(F)c(S(=O)(=O)Nc2cscn2)cc1Cl)c1cc(CCN2CCC2)ccc1F [Example 257, (S)-4-((1-(5-(2-(azetidin-1-yl)ethyl)-2-fluorophenyl)ethyl)amino)-5-chloro-2-fluoro-N-(thiazol-4-yl)benzenesulfonamide formate] | 0.49 | 6.1 | 8.39 |  |  |
| 0.011 | 14.5 | O=S(=O)(Nc1cscn1)c1c(F)cc(NCc2c(F)ccc(F)c2CN2CCC2)cc1F [Example 283, 4-((2-(azetidin-1-ylmethyl)-3,6-difluorobenzyl)amino)-2,6-difluoro-N-(thiazol-4-yl)benzenesulfonamide] | 0.126 | 14.9 |  | 30 | 28 |
|  |  | C[C@H]1CCCN1Cc1cccc(F)c1CNc1cc(F)c(S(=O)(=O)Nc2cscn2)c(F)c1 [Example 158, (S)-2,6-difluoro-4-((2-fluoro-6-((2-methylpyrrolidin-1-yl)methyl)benzyl)amino)-N-(thiazol-4-yl)benzenesulfonamide formate] | 0.126 | 30 | 30 |  |  |
